Laboratory results as given in publication PMC6105804, “In Vitro and In Vivo Evaluation of APX001A/APX001 and Other Gwt1 Inhibitors against Cryptococcus” (Antimicrobial Agents and Chemotherapy, 2018).

How the values were obtained:
[1] = tested on: C. neoformans strain H99; assay: Murine model of cryptococcal meningitis, APX001 alone and with FLC (no ABT); type: in vivo, Cryptococcus neoformans; settings: monotherapy 7 days; APX001 390 mg/kg TID oral gavage, FLC 80 mg/kg/day i.p.; male CD-1 mice
Description: The efficacies of APX001 and FLC were evaluated in a well-established mouse CM model ([34]). Since Cryptococcus infections can be hematogenously disseminated to other organs, the numbers of CFU in both lung and brain tissue were evaluated. Male CD-1 mice were infected with 5.9 × 10^4 CFU of C. neoformans strain H99 via lateral tail vein injection. Mice were assigned to four groups (n = 10), consisting of (i) treatment with APX001, (ii) treatment with APX001 plus FLC, (iii) treatment with FLC, or (iv) no treatment as a control. Treatment was initiated within 1 h after infection. APX001 was administered by oral gavage at a dose of 390 mg/kg thrice daily (TID), with each dose being administered roughly 8 h apart. […] FLC (2 mg/ml; Sagent Pharmaceuticals, Schaumburg, IL) was administered at a dose of 80 mg/kg/day intraperitoneally (i.p.).
Brain and lung burdens in mice were measured at 7 days postinfection with C. neoformans H99. Male CD-1 mice were infected with 5.9 × 10^4 CFU of C. neoformans strain H99 via the lateral tail vein. Treatment was initiated at about 1 h postinfection and continued for 7 days. APX001 was administered by oral gavage at a dose of 390 mg/kg thrice daily, with each dose being administered roughly 8 h apart. FLC (2 mg/ml; Sagent Pharmaceuticals, Schaumburg, IL) was administered at a dose of 80 mg/kg/day i.p. once daily. Fungal burden data were log10 transformed and evaluated using Kruskal-Wallis tests with Dunn's multiple-comparison test for post hoc analysis (Prism software, v5; GraphPad Software, Inc., San Diego, CA). A P value of ≤0.05 was considered statistically significant (*, P ≤ 0.05; **, P ≤ 0.01; ***, P ≤ 0.001). The 95% confidence interval (CI) is presented.
C. neoformans strain H99 was grown in yeast extract-peptone-dextrose broth at 30°C on a shaker (220 rpm) for 24 h, centrifuged (1,980 relative centrifugal force), and washed twice in phosphate-buffered saline (PBS), resuspended in PBS, and quantified by hemacytometric count. Male CD-1 mice were infected with ∼5 × 10^4 CFU per mouse via lateral tail vein injection of 100 μl. Mice were weighed, and treatment was begun within 1 h after infection. Treatments were administered daily for 7 days. Mice were weighed daily and observed for acute and chronic adverse symptoms. Mice were sacrificed on day 8, and the brain and left lung were homogenized and cultured for quantitative determination of the tissue burden (number of CFU per gram of tissue). Tissues were homogenized for 25 s in 1 ml phosphate-buffered saline using two 6.5-mm steel beads and a Mini-Beadbeater 16 apparatus (Biospec Products, Inc., Bartlesville, OK) and serially diluted in 10-fold steps. Aliquots (100 μl) of homogenate were plated and incubated for 3 to 7 days at 37°C. Fungal burden data were log10 transformed and evaluated using Kruskal-Wallis tests with Dunn's multiple-comparison test for post hoc analysis (Prism software, v5; GraphPad Software, Inc., San Diego, CA). A P value of ≤0.05 was considered statistically significant.

[2] = tested on: C. neoformans H99; assay: Microtiter checkerboard synergy with FLC; type: cell-based, Cryptococcus neoformans; settings: in combination with FLC, MIC read at 50% inhibition, synergy FICI < 0.5
Description: An important consideration for developing a new treatment for CM is the potential for inclusion in combination therapy. We evaluated the synergy of APX001A and APX2020 in combination with FLC using standard microtiter dilution techniques ([33]). […] Importantly, no antagonism was observed.
To establish the antimicrobial activity of the APX001A analogs, broth microdilution susceptibility testing was performed according to Clinical and Laboratory Standards Institute (CLSI) guidelines M27-A3 ([47]) for yeasts and M38-A2 for molds ([48]). APX001A and analogs were first diluted in DMSO to obtain intermediate dilutions. These were further diluted in microtiter plates to obtain a final concentration of 2 to 0.002 μg/ml. One microliter of DMSO was added to the no-drug control wells. The solutions were mixed on a plate shaker for 10 min, and the plates were incubated at 35°C for 40 to 48 h (C. albicans, A. fumigatus) and 72 h (C. neoformans). The minimum concentration that led to a 50% reduction in fungal growth compared to that for the control (determined with the aid of a reading mirror) was determined as the MIC for C. albicans and C. neoformans. The minimum concentration that led to the shortening of hyphae compared to the hyphal growth in DMSO control wells was determined as the minimum effective concentration (MEC) for A. fumigatus (as read for the echinocandins). […]

[3] = parameters: method as in ref 23 = [23]; 23. Zhao Y , Lee M , Lee A , Paderu P , Park S , Perlin DS 2018 APX001 is effective against echinocandin and multi-drug resistant Candida isolates . Abstr 28th ECCMID , Madrid, Spain .; settings: female CD-1 mice, cited from earlier work
[4] = parameters: method as in ref 11, 12 = [11]; 11. Hodges MR , Ople E , Shaw KJ , Mansbach RS , van Marle S , van Hoogdalem E , Kramer W , Wedel P 2017 Phase 1 study to assess safety, tolerability and pharmacokinetics of single and multiple oral d || [12]; 12. Hodges MR , Ople E , Shaw KJ , Mansbach RS , van Marle S , van Hoogdalem E , Wedel P , Kramer W 2017 First-in-human study to assess safety, tolerability and pharmacokinetics of APX001 administered; settings: phase 1 studies in healthy volunteers; cited from earlier work
[5] = 100-mg/kg ABT orally 2 h prior to APX001 i.p.

SMILES	reduction in brain fungal burden vs untreated control [1] [log10 CFU/g]	reduction in lung fungal burden vs untreated control [1] [log10 CFU/g]	fractional inhibitory concentration index (FICI) [2]	fold increase in AUC with ABT [3, 5] [fold]	half-life of the active moiety with ABT [3, 5] [h]	half-life of the active moiety without ABT ([3]; APX001 i.p.) [h]	exposures in humans [4] [µg·h/mL]	half-life in humans [4] [h]
OC(Cn1cncn1)(Cn1cncn1)c1ccc(F)cc1F [FLC, fluconazole, reference compound]	1.04	1.30						
Nc1ncccc1-c1cc(Cc2ccc(COc3ccccn3)cc2)no1 [APX001A]			0.37	9	8.8	1.3	≥ 200	60
